For data set [1], the system named is Caco-2 cells. Put plainly: Western blotting of protein levels in stimulated Caco-2 cells. The data set is classed as cell-based, human. The settings on record: western blot, 3 samples. The protocol:
Following stimulation, cells were lysed using ice cold radioimmunoprecipitation assay (RIPA) buffer (20mM Tris, pH 7.4, 150mM NaCl, 1mM Na3VO4, 10mM NaF, 1mM EDTA, 1mM EGTA, 0.2mM phenylmethylsulfonyl fluoride, 1% Triton, 0.1% SDS, and 0.5% deoxycholate) with protease inhibitors (AEBSF 1mM, Aprotinin 0.8μM, Leupeptin 21μM, Bestatin 36μM, Pepstatin A 15μM, E-64 14μM) and 50U/mL DNAse1(Amresco Inc, Solon, OH, USA). To remove insoluble material cell lysates were sonicated and centrifuged (14,000 rpm, 4°C, 10 min). The Bradford method was used to quantify protein concentrations. Proteins were resolved by 7 or 10% sodium dodecyl sulfate-polyacrylamide gel electrophoresis (SDS-PAGE) and transferred to polyvinylidene difluoride membranes (PVDF) for western blotting using anti-APP (Y188), CD36, occludin, LFABP, FATP4, pSrc, cSrc, and GAPDH (loading control) antibodies. Antibody binding was detected with enhanced chemiluminescence (GE Healthcare, Piscataway, NJ). In some instances, blots were stripped in […], 10 min, 25°C, for reprobing. Western blots were quantified using Adobe Photoshop software. Optical densities of bands were normalized against their respective loading controls and averaged (+/-SD).
Fig 5 Aβ, APP, and CD36 stimulations selectively altered protein levels in Caco-2 cells.
In general terms: A western blot detects proteins with antibodies after separation by electrophoresis.

Data set [2] has as its system Caco-2 cells. Put plainly: Cholesterol Uptake Cell-Based Assay (NBD Cholesterol). Set-up: species or system human. Particulars: 40 min; for Cholesterol uptake: 8 samples. The method, then: Cholesterol was measured following the protocol provided in the Cholesterol Uptake Cell-Based Assay Kit from Cayman Chemical Company (Ann Arbor, Michigan USA). […] At the end of treatment, the plates were aspirated and cell-based assay buffer was added to each well and NBD Cholesterol uptake was quantified using a fluorescent plate reader (480 nm excitation and 520 nm emission).
Fig 4 Aβ and 22C11 agonist decreased cholesterol uptake whereas the sAPP-derived peptide and SM-ϕ stimulated increased cholesterol uptake by Caco-2 cells. […] Representative data from 3 independent experiments are shown.

The test system of data set [3] is Caco-2 cells. Put plainly: Cytokine ELISAs (IL-8, MCP-1, MDC, IL-6, TNFα) of media from stimulated Caco-2 cells. The data set is classed as cell-based, human. Particulars: ELISA of media, normalized to protein, 6 samples. In general terms: ELISA stands for enzyme-linked immunosorbent assay.
The next data set relates to HepG2 hepatocyte line. The arrangement: method as in PMID 8898096. Particulars: Aβ 1–40 treatment of human HepG2 hepatocyte line; cited from earlier work.
The subject of data set [4] is Caco-2 cells. The experiment in a line: Aβ uptake assay with FITC labeled Aβ 1–40. The data set is classed as in vitro ADME, human. The protocol:
FITC labeled Aβ 1–40 was prepared according to the manufacturer’s protocol (rPeptide, Bogart, GA, USA). 500nM of the peptide was added to confluent cells in serum free DMEM/F12 for 4 hours in the absence or presence of 10ng/mL LPS. The media was then removed and extracellular peptide signal was quenched by rinsing cells with 0.25% trypan blue dissolved in PBS. The trypan blue incubation served to quench FITC-Aβ signal from any peptide that was associated with the extracellular plasma membrane surface or with the tissue culture plastic of the wells. Intracellular Aβ signal was then quantified using a fluorescent plate reader (480 nm excitation and 520 nm emission).
(§1) Fig 2 Caco-2 cells secreted and took up Aβ. […] The cells were rinsed with trypan blue to quench extracellular signal from FITC-Aβ on the cell surface or surface of the tissue culture dish and intracellular Aβ fluorescence was measured with a fluorescent plate reader (480 nm excitation and 520 nm emission) (B).

For data set [5], the system named is Caco-2 cells. Put plainly: Aβ 1–40 and Aβ 1–42 ELISA of media from stimulated Caco-2 cells (Aβ secretion). The data set is classed as cell-based, human. Particulars: overnight stimulation in serum free DMEM/F12; 10ng/mL LPS or 1μg/mL 22C11; 3 experiments in a replicate of 8. The protocol:
Caco-2 cells were purchased from ATCC (Manassas, VA, USA). These are an epithelial-like cell line derived from a colorectal adenocarcinoma from a person. Caco-2 cells were maintained in DMEM/F12 (Gibco, Life Technologies, Grand Island, NY, USA) supplemented with 10% heat inactivated fetal bovine serum (FBS), 5% donor horse serum (Serum Source International, Charlotte, NC, USA) and antibiotics (0.05mg penicillin/0.05mg streptomycin/0.01mg neomycin/mL) (Sigma-Aldrich, St. Louis, MO, USA). Caco-2 cells were plated and allowed to grow to confluency before removing supplemented media and replacing with serum free DMEM/F12 with or without treatments. Following stimulation, Caco-2 cells were used for ELISA, Aβ uptake, cholesterol assays, immunoprecipitation, and western blot analysis.
The cells were lysed using ice cold RIPA buffer with protease inhibitors and 50U/mL DNAse1. […] The Bradford method was used to quantify protein concentrations for normalization of Aβ in the media and lysates were used for western blotting.
as §1

On the set-up of data set [6]: method as in PMID 12897403. Particulars: in vivo, iv; cited from earlier work.

On to “Aβ 1–40: amyloid β 1–40 peptide purchased from rPeptide”, for which the “protein levels of other proteins examined (besides occludin)” value in the data set on Caco-2 cells [1] (1μM Aβ 1–40 overnight, compared to control untreated cells) is “no effect”. In addition, in the data set with Caco-2 cells [1] (overnight stimulation, 1μg/mL antibody or 1μM Aβ 1–40), the occludin protein levels entry is “decreased”. For the same substance, in the data set with Caco-2 cells [2] (100nM, 1μM and 5μM Aβ 1–40 (all three concentrations), 20μg/ml NBD Cholesterol), the Cholesterol uptake result is listed as “decreased”. In addition, the “Cholesterol uptake, concentration comparison” value in the data set on Caco-2 cells [2] (1μM Aβ 1–40 compared with 100nM and 5μM) is recorded as “most dramatic effect”. For the same substance, the IL-6 cytokine secretion result in the data set on Caco-2 cells [3] (1μM Aβ 1–40, 24h) is given as “increased”. In addition, the “steady state levels of intracellular cholesterol, cholesterol esters, phospholipids, and triacylglycerol” value with HepG2 hepatocyte line is “attenuate”.

Regarding “fluorescently labeled Aβ 1–40: FITC labeled Aβ 1–40 prepared according to the manufacturer's protocol (rPeptide)”, the “Uptake of fluorescently labeled Aβ 1–40 into cells (intracellular fluorescence)” value with Caco-2 cells [4] (500nM FITC Aβ 1–40, 4 hr, confluent Caco-2, serum free DMEM/F12, extracellular signal quenched with 0.25% trypan blue, fluorescent plate reader 480/520 nm, 3 experiments in a replicate of 8) was “could take up Aβ peptide”.

With lipopolysaccharide [LPS], the Cholesterol uptake result in the data set on Caco-2 cells [2] (10ng/mL LPS, 20μg/ml NBD Cholesterol in glucose free HBSS) is reported as “increased”. In the data set on Caco-2 cells [3] (10ng/mL LPS, 24h), the IL-8 cytokine secretion entry is “increased” and the TNFα cytokine secretion result was “increased”. Also, in the data set with Caco-2 cells [4] (10ng/mL LPS present with 500nM FITC Aβ 1–40, 4 hr), the “Effect on uptake of FITC Aβ 1–40 by Caco-2 cells” value was “not affected”. Also, the “Aβ secretion (Aβ 1–40 and Aβ 1–42 ELISA)” value with Caco-2 cells [5] is given as “higher concentrations of Aβ 1–40 compared to Aβ 1–42 released”.

Turning to “radiolabeled Aβ 1–40: radiolabeled Aβ 1–40 associated with chylomicron-like particles, literature study”, in data set [6], the transport into organs entry was “can be transported into diverse organs including adipose tissue and brain”.

These data come from PMC4351204, “Amyloid Precursor Protein Mediated Changes in Intestinal Epithelial Phenotype In Vitro” (PLoS ONE, 2015).
